US10682333B2, “Composition for inhibiting formation of SNARE complex, containing myricetin derivatives” (RESEARCH & BUSINESS FOUNDATION SUNGKYUNKWAN UNIVERSITY, priority 2015, dated 2020)
Read-outs that look alike come from different tables or passages of the source.

Legend:
[1] = biological target: T1, SNARE complex (Syntaxin 1A-CFP, VAMP2-YFP) in PCl2 cells (UniProt P60881+P63027+Q16623); assay: In vivo (cell) SNARE function screen: FRET C and NPY release in PCl2 cells; assay type: cell-based
T1 construct: expressed in transfected cells

[2] = biological target: T2, SNARE complexes (Homo sapiens, UniProt P60880+P63027+Q16623); assay: Immunoblotting of SDS-resistant SNARE complexes, in vivo; assay type: cell-based; settings: SDS-PAGE
Excerpt: (§1) The above characteristics were clearly confirmed by immunoblotting of SNARE complexes (see FIG. 2B). SNARE complexes are known to have SDS-resistance, and based on these characteristics, immunoblotting using SDS-PAGE is generally used to identify the formation of SNARE complexes.

[3] = test system: PCl2 cells; assay: [3H] norepinephrine release from PCl2 cells (liquid scintillation); assay type: cell-based; settings: for inhibition of release of [3H] norepinephrine: Krebs' buffer with high K+
Procedure: The first method is as follows. […] After thorough washing, the PCl2 cells were washed four times with the culture medium for 15 minutes each. […] The medium was replaced with Krebs' buffer with high K^+, followed by culturing for 10 minutes, to collect samples. The collected samples were subjected to radiation measurement using a liquid scintillation counter.

[4] = Light stability under UV, color observed with the naked eye over time; assay type: physicochemical; settings: UV lamp
Procedure: It was examined whether myricetin, and laricitrin and syringetin, which are naturally occurring myricetin derivatives, were denatured when exposed to UV. First, each myricetin derivative (MP, 1 mg/1.34 g), prepared by reacting myricetin (M, 1 mg/1.34 g) and palmitic acid, was uniformly mixed in a commercially available sunblock cream (Kolmar Korea, NoTS UV protection sunscreen cream, 1.34 g), and the mixture was applied on a cover glass, followed by irradiation for 24 hours with UV having an intensity of 253.7 nM using a UV lamp.

[5] = biological target: SNARE-mediated membrane fusion (Homo sapiens, UniProt P60880+P63027+Q16623); assay: In vitro membrane fusion by FRET on dye-labelled lipid bilayer membrane; assay type: biochemical; settings: artificial lipid bilayer membrane
[6] = biological target: T2, SNARE complexes; assay: Immunoblotting of SDS-resistant SNARE complexes, in vitro; assay type: biochemical; settings: SDS-PAGE
Excerpt: as §1

[7] = Light stability under UV, DMSO solution mixed with zinc oxide; assay type: physicochemical; settings: 1 mg/ml DMSO with zinc oxide, UV 2 hours
Procedure: First, 1 mg of each of myricetin and the myricetin derivatives were dissolved in 1 ml of dimethyl sulfoxide (DMSO), followed by mixing with zinc oxide having high reactivity with a hydroxyl group of myricetin. The resulting mixed solution was applied, as 100 μl drops, on 3M paper, and irradiated for 2 hours with UV light having an intensity of 253.7 nM using a UV lamp. As negative controls, untreated DMSO and a mixed solution of untreated DMSO and zinc oxide were used.

[8] = Solubility in canola oil and mineral oil; assay type: physicochemical
Procedure: In the present experimental example, in view of the fact that in Example 4, myricetin underwent various changes in properties during synthesis of a myricetin derivative, in which all hydroxyl groups of myricetin were acylated by palmitic acid, the solubilities of the myricetin derivative in an organic solvent, or in a commercially available liposoluble cosmetic, food product, or the like were measured.
In particular, the myricetin derivative was dissolved in canola oil and mineral oil at a ratio of 1 mg/l ml. The results thereof are illustrated in FIG. 13.

[9] = test system: PCl2 cells; assay: Intracellular bioconversion into myricetin in PCl2 cells (HPLC); assay type: in vitro ADME; settings: within 1 hour
Procedure: A rate of bioconversion of the myricetin derivative prepared by acylation with acetic acid into myricetin in vivo was determined.
After the cells were completely washed, the cells were treated with trypsin to collect trypsin-attached cells, and trypsin was removed therefrom to obtain only pure cells. The cells were suspended in 100 μl of tetrahydrofuran, followed by disruption through sonication, and then only tetrahydrofuran in which materials in the cells were lysed was collected. Subsequently, only myricetin in the recovered purified liquid was analyzed by high-performance liquid chromatography (HPLC) to examine whether the myricetin derivative prepared by acylation using acetic acid was converted into myricetin, and the results thereof are illustrated in FIG. 15.

[10] = Examination of color of myricetin derivatives by degree of acylation; assay type: physicochemical; settings: degree of acylation by palmitic acid
Excerpt: In the present experimental example, whether a disadvantage of myricetin that a too dark intrinsic color thereof causes the skin to be stained can be addressed through making changes in properties using myricetin derivatives according to the present invention was examined.
As a result, it was observed that as a degree to which a hydroxyl group of myricetin was acylated by palmitic acid, i.e., the degree of acylation, increased, colors of the myricetin derivatives were changed, unlike conventional myricetin. In particular, it was observed that the myricetin derivative obtained in Example 3, in which one hydroxyl group of myricetin was acylated by palmitic acid, had yellow color, which is an intrinsic color of myricetin (see FIG. 12A), whereas the myricetin derivative obtained in Example 4, in which all hydroxyl groups of myricetin were acylated by palmitic acid, had white color (see FIG. 12B).

T1 sequence (Q16623 whole entry): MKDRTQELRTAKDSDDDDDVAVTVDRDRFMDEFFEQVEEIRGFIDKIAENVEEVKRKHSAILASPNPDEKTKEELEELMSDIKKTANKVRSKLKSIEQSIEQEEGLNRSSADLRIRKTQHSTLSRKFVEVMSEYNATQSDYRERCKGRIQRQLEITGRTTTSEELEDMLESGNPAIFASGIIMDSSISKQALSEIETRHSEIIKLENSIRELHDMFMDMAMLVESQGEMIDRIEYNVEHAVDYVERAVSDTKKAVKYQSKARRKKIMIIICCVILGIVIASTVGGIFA
T1 sequence (P63027 whole entry): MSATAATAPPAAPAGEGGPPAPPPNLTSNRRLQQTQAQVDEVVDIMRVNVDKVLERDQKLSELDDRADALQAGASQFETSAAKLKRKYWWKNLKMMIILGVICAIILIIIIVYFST
T1 sequence (P60881 whole entry): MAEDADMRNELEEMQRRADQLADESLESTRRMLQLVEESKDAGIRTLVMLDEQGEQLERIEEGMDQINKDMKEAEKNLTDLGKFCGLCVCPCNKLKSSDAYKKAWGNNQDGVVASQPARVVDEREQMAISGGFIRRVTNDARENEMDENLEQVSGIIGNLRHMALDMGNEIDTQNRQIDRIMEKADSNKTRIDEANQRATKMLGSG
T2 sequence (Q16623 whole entry): as the sequence (Q16623 whole entry) above
T2 sequence (P60880 whole entry): as the sequence (P60881 whole entry) above
T2 sequence (P63027 whole entry): as the sequence (P63027 whole entry) above
SNARE-mediated membrane fusion, sequence (Q16623 whole entry, the tested form may be a part): as the sequence (Q16623 whole entry) above
SNARE-mediated membrane fusion, sequence (P60880 whole entry, the tested form may be a part): as the sequence (P60881 whole entry) above
SNARE-mediated membrane fusion, sequence (P63027 whole entry, the tested form may be a part): as the sequence (P63027 whole entry) above

| Structure (SMILES) | in vivo functions (FRET C, NPY release) [1] | formation of SNARE complexes in vivo [2] | inhibition of release of [3H] norepinephrine [3] | color change on UV irradiation compared to myricetin [4] | time after UV irradiation at which color turned brown [4] [min] | other results |
| --- | --- | --- | --- | --- | --- | --- |
| COc1cc(-c2oc3cc(O)cc(O)c3c(=O)c2O)cc(O)c1O [laricitrin] | 40-45 % of the control | decreasing tendency only in vivo | highest reactivity | did not show clear color changes | 60 | activity of inhibiting [3H] norepinephrine release compared to conventional myricetin ([3]; 20 μM): at least two-fold improved activity |
| O=c1c(O)c(-c2cc(O)c(O)c(O)c2)oc2cc(O)cc(O)c12 [myricetin] |  | decreasing tendency | concentration-dependent manner |  | 5 | in vivo functions (FRET C, NPY release) ([1]; PCl2 cells): ≤ 40 % of the control; in vitro functions (membrane fusion) [5]: ≤ 40 % of the control; formation of SNARE complexes in vitro [6]: decreasing tendency; color change on UV exposure [7]: color changes over time; solubility in canola oil ([8]; 1 mg/1 ml): insoluble; solubility in mineral oil ([8]; 1 mg/1 ml): insoluble; time after UV irradiation at which color turned dark brown (complete oxidation) [4]: 30 min |
| COc1cc(O)c2c(=O)c(OC)c(-c3cc(OC)c(OC)c(OC)c3)oc2c1 [combretol] | 40-45 % of the control | decreasing tendency only in vivo |  |  |  |  |
| CC(=O)Oc1cc(OC(C)=O)c2c(=O)c(OC(C)=O)c(-c3cc(OC(C)=O)c(OC(C)=O)c(OC(C)=O)c3)oc2c1 [MA] |  |  | comparable or slightly better activity |  |  | fraction bioconverted into myricetin [9]: 3% |
| COc1cc(-c2oc3cc(O)cc(O)c3c(=O)c2O)cc(OC)c1O [syringetin] |  | decreasing tendency only in vivo |  | did not show clear color changes | 240 |  |
| CCCCCCCCCCCCCCCC(=O)Oc1cc(OC(=O)CCCCCCCCCCCCCCC)c2c(=O)c(OC(=O)CCCCCCCCCCCCCCC)c(-c3cc(OC(=O)CCCCCCCCCCCCCCC)c(OC(=O)CCCCCCCCCCCCCCC)c(OC(=O)CCCCCCCCCCCCCCC)c3)oc2c1 [MP] |  |  |  |  |  | color of the substance [10]: white color; solubility in canola oil [8]: liposoluble; solubility in mineral oil [8]: liposoluble |
